For data set [1], the target named is α-glucosidase. In words: α-glucosidase inhibitory activity (p-nitrophenyl-α-D-glucopyranoside method). Format: biochemical. As for the experimental part: After 20 min incubation at 37 °C, 90 μL Na2CO3 (100 mM) was added into the each well to stop the enzymatic reaction. Absorbance of the 96-well microplate reader was recorded at 400 nm. Antidiabetic inhibition activity data were taken in three parallel measurements for four concentrations of each synthesis sample. The results of the biological activity analyses are presented as IC50 values.

For the next data set, the system named is HEK293 cells. In words: MTT cytotoxicity assay on HEK293 cells. The note with it: for IC50: Homo sapiens, HEK293, 24 h exposure, 12.5–100 μM; for cytotoxic effects on healthy HEK293 cells (in words): 24 h, up to 100 μM. Format: cell-based, human. On the procedure: The HEK293 was used for cell culture studies and obtained from the American Type Culture Collection (ATCC). Cells were cultured in RPMI-1640 cell medium supplemented with 10% fetal calf serum (FBS) and 1% penicillin/streptomycin. Cells were seeded 6 × 10^5/mL density into 96 well cell culture plates and incubated in a CO2 incubator at 37 °C. The cells were exposed to different chemical concentrations (100, 50, 25 and 12,5 μM) for 24 h after reaching a confluency of 80%.
The MTT assay was used to assess the cell viability. The MTT assay included putting the cells in an MTT solution (at 1 mg/mL concentration) and incubating them for 1 h at 37 °C. The absorbance was measured at a wavelength of 570 nm using an Epoch microplate spectrophotometer.

The target of a further data set is T1, α-amylase (Sus scrofa, UniProt P00690).
T1 sequence (P00690 16-511): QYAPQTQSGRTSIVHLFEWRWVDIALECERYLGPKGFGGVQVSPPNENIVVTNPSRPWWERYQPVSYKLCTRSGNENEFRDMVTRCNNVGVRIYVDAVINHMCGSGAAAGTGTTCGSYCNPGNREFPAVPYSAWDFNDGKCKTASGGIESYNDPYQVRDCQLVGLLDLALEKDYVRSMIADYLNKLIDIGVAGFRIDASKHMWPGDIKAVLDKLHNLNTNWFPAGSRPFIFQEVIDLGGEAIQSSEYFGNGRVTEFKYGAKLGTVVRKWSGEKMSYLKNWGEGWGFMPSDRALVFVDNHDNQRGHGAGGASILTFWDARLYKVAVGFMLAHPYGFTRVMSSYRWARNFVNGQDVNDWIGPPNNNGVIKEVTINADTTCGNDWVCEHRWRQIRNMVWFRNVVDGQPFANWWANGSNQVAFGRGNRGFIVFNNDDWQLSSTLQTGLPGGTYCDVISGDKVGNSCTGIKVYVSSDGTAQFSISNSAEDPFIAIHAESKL
In words: α-amylase inhibitory activity (spectroscopic starch/Lugol method). Format: biochemical.

The test system of data set [2] is α-glucosidase. Description: α-glucosidase inhibitory activity (p-nitrophenyl-α-D-glucopyranoside method). Format: biochemical. The source holds these as a separate data set.
Where [3] appears, read: mean ± SEM of three parallel measurements, read-out: antidiabetic inhibition activity IC50, α-glucosidase.
[4] abbreviates: no unit in Table 5, same values as Table 2 (there μM), read-out: IC50 value (α-glucosidase), as repeated in docking Table 5.

Entries after “also recorded” stand apart in the source; their conditions may differ. Where two headings read alike, the source gives them in different places.

As a reminder, the IC50 is the concentration needed to halve the response being measured. Turning to `CC(=NNC(=O)c1ccc(Br)cc1)c1ccc(S(=O)(=O)NC(=O)NC2CCCCC2)cc1` [compound 5, N-(Cyclohexylcarbamoyl)-4-(1-(2-(4-bromobenzoyl)-hydrazinylidene)-ethyl)-benzenesulfonamide], the IC50 on α-glucosidase [1] (setting [3]) was 77.36 ± 0.31 µM; on α-glucosidase [1] (setting [4]), 77.36 ± 0.31 µM; with HEK293 cells, greater than 100 µM.

Consider `CC(=NNC(=O)c1ccc(F)cc1)c1ccc(S(=O)(=O)NC(=O)NC2CCCCC2)cc1` [compound 3, N-(Cyclohexylcarbamoyl)-4-(1-(2-(4-fluorobenzoyl)-hydrazinylidene)-ethyl)-benzenesulfonamide], for which the concentration for half-maximal inhibition (IC50) on α-glucosidase [1] (setting [3]) was 45.34 ± 0.36 µM; at α-glucosidase [1] (setting [4]), 45.34 ± 0.36 µM; in the data set on HEK293 cells, greater than 100 µM. In the data set with HEK293 cells, the “cytotoxic effects on healthy HEK293 cells (in words)” value (“cytotoxic effects” for short) is “not causing any damage to healthy cells; also recorded: no negative impact on healthy cells”.

Take `C/C(=N\NC(=O)c1cccc2ccccc12)c1ccc(S(=O)(=O)NC(=O)NC2CCCCC2)cc1` [compound 11, 4-(1-(2-(1-Naphthalene)-hydrazinylidene)-ethyl)-N-(cyclocarbamoyl)-benzenesulfonamide]: the IC50 at α-glucosidase [1] (setting [3]) was 57.1 ± 0.78 µM; on α-glucosidase [1] (setting [4]), 57.1 ± 0.78 µM; in the data set with HEK293 cells it was greater than 100 µM.

For `C/C(=N\NC(=O)c1ccccc1)c1ccc(S(=O)(=O)NC(=O)NC2CCCCC2)cc1` [compound 1, 4-(1-(2-Benzoylhydrazinilidene)-ethyl)-N-(cyclohexylcarbamoyl)-benzenesulfonamide], the 50% inhibitory concentration (IC50) at α-glucosidase [1] (setting [3]) was 108 ± 0.69 µM; on α-glucosidase [1] (setting [4]) it was 108 ± 0.69 µM; in the data set with HEK293 cells it was greater than 100 µM.

Turning to `CC(=NNC(=O)c1cccc(Cl)c1)c1ccc(S(=O)(=O)NC(=O)NC2CCCCC2)cc1` [compound 2, 4-(1-(2-(3-Chlorobenzoyl)-hydrazinylidene)-ethyl)-N-(cyclohexylcarbamoyl)-benzenesulfonamide], the IC50 on α-glucosidase [1] (setting [3]) was 68.75 ± 0.37 µM; at α-glucosidase [1] (setting [4]) it was 68.75 ± 0.37 µM; in the data set with HEK293 cells, greater than 100 µM.

As to `COc1ccc(C(=O)N/N=C(\C)c2ccc(S(=O)(=O)NC(=O)NC3CCCCC3)cc2)cc1` [compound 8, N-(Cyclohexylcarbamoyl)-4-(1-(2-(4-methoxy)-hydrazinilidene)-ethyl)-benzenesulfonamide], the “type of inhibition of α-amylase (enzyme kinetic study, Lineweaver–Burk)” value at α-amylase was “uncompetitive”. Moreover, the 50% inhibitory concentration (IC50) on α-glucosidase [1] (setting [3]) and at α-glucosidase [1] (setting [4]) was 38.1 ± 0.8 µM throughout. The “cytotoxic effects” value in the data set on HEK293 cells was “not causing any damage to healthy cells; also recorded: no negative impact on healthy cells”. In the data set with α-glucosidase [2], the “type of inhibition of α-glucosidase (enzyme kinetic study, Lineweaver–Burk)” value is “uncompetitive”.

For `C[C@H]1O[C@H](O[C@H]2[C@H](O)[C@@H](O)[C@@H](O[C@H]3[C@H](O)[C@@H](O)C(O)O[C@@H]3CO)O[C@@H]2CO)[C@H](O)[C@@H](O)[C@@H]1N[C@H]1C=C(CO)[C@@H](O)[C@H](O)[C@H]1O` (some centres unmarked) [acarbose, reference compound], in the data set on HEK293 cells, the “cytotoxic effects” value is listed as “nontoxic; also recorded: no cytotoxic effects” and the IC50 is greater than 100 µM.

Take `CC(=NNC(=O)c1ccccc1[N+](=O)[O-])c1ccc(S(=O)(=O)NC(=O)NC2CCCCC2)cc1` [compound 13, N-(Cyclohexylcarbamoyl)-4-(1-(2-(2-nitrobenzoyl)-hydrazinylidene)-ethyl)-benzenesulfonamide]: the IC50 on α-glucosidase [1] (setting [3]) is 66.38 ± 0.37 µM; at α-glucosidase [1] (setting [4]), 66.38 ± 0.37 µM; with HEK293 cells, greater than 100 µM.

Take `CC(=NNC(=O)c1cccc([N+](=O)[O-])c1)c1ccc(S(=O)(=O)NC(=O)NC2CCCCC2)cc1` [compound 9, N-(Cyclohexylcarbamoyl)-4-(1-(2-(3-nitrobenzoyl)-hydrazinylidene)-ethyl)-benzenesulfonamide]: the IC50 turned out to be 61.2 ± 0.69 µM on α-glucosidase [1] (setting [3]), 61.2 ± 0.69 µM on α-glucosidase [1] (setting [4]) and 69.2 µM in the data set on HEK293 cells.

In the case of `CC(=NNC(=O)c1ccc(I)cc1)c1ccc(S(=O)(=O)NC(=O)NC2CCCCC2)cc1` [compound 4, N-(Cyclohexylcarbamoyl)-4-(1-(2-(4-iodobenzoyl)-hydrazinylidene)-ethyl)-benzenesulfonamide], the half-maximal inhibitory concentration (IC50) is 84.97 ± 0.46 µM at α-glucosidase [1] (setting [3]), 84.97 ± 0.46 µM at α-glucosidase [1] (setting [4]) and greater than 100 µM with HEK293 cells.

For the compound `CC(=NNC(=O)c1ccc(C)cc1)c1ccc(S(=O)(=O)NC(=O)NC2CCCCC2)cc1` [compound 7, N-(Cyclohexylcarbamoyl)-4-(1-(2-(4-methylbenzoyl)-hydrazinylidene)-ethyl)-benzenesulfonamide], the half-inhibitory concentration (IC50) amounted to 46.14 ± 0.33 µM at α-glucosidase [1] (setting [3]), 46.14 ± 0.33 µM at α-glucosidase [1] (setting [4]) and 61 µM in the data set with HEK293 cells.

On to `CC(=NNC(=O)c1ccc(Cl)cc1)c1ccc(S(=O)(=O)NC(=O)NC2CCCCC2)cc1` [compound 14, 4-(1-(2-(4-Chlorobenzoyl)-hydrazinylidene)-ethyl)-N-(cyclohexylcarbamoyl)-benzenesulfonamide], for which the IC50 on α-glucosidase [1] (setting [3]) and on α-glucosidase [1] (setting [4]) was 52.25 ± 0.44 µM each time.

In the case of `CC(=NNC(=O)c1ccc([N+](=O)[O-])cc1)c1ccc(S(=O)(=O)NC(=O)NC2CCCCC2)cc1` [compound 10, N-(Cyclohexylcarbamoyl)-4-(1-(2-(4-nitrobenzoyl)-hydrazinylidene)-ethyl)-benzenesulfonamide], the IC50 was 40.44 ± 0.23 µM on α-glucosidase [1] (setting [3]), 40.44 ± 0.23 µM at α-glucosidase [1] (setting [4]) and greater than 100 µM in the data set with HEK293 cells. Further, the “cytotoxic effects” value in the data set with HEK293 cells is “not causing any damage to healthy cells; also recorded: no negative impact on healthy cells”.

These data come from article PMC12489694, “Design, Synthesis, Antidiabetic Activity and In Silico Studies of New Hydrazone Derivatives Derived from Acetohexamide” (ACS Omega, 2025).
